Reference: patent publication US20140080162A1, “FLUORESCENCE LIFETIME EPIGENETICS ASSAYS” (ALMAC SCIENCES (SCOTLAND) LIMITED, priority 2011, published 2014)
Like-named read-outs stand apart in the source and are kept apart here. Residues, ends and D or L forms follow the SMILES beside them. *: point of attachment. Propanoyl(3-(9AA-2-yl)) = Nc1c2ccccc2nc2ccc(CCC(=O)*)cc12

Tests used:
Set7/9 [1] = target: T1, Set7/9 (Homo sapiens, UniProt Q8WTS6); conditions: literature (Gauthier et al. 2012), lower concentration of SAM; read-out: reported IC50; cited from earlier work
T1 construct: purchased BPS BioScience (via AMSBio, UK)
T1 sequence (Q8WTS6 1-366): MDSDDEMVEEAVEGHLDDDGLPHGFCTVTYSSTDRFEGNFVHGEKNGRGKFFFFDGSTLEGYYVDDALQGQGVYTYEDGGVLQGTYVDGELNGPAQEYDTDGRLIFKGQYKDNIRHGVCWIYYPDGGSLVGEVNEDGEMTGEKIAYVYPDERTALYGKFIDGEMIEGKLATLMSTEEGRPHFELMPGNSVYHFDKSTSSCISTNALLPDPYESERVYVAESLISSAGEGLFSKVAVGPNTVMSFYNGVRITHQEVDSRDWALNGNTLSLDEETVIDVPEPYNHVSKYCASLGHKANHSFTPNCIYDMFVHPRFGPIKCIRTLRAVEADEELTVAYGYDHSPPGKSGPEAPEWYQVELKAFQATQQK

Set7/9 [2] = target: T1, Set7/9; experiment: Set7/9 FLT protease protection assay; format: biochemical; conditions: for overall lifetime change between substrate and product / maximum range of the assay: Set7/9 time-course, 1 μM peptide
Experimental: The assay was performed at room temperature and samples taken after 0 h, 2 h, and 6 h time intervals respectively.
10 μl of Endo-LysC (final concentration 2 nM) was added to each well and the plate incubated at room temperature for 15 mins before the FLTs were measured using a NanoTaurus plate reader. Peptide only controls were included at the same concentration for comparison.
Assays were performed in a 20 μl volume in a 384-well black microplate and contained peptide 12 (1 μM) and Set7/9 enzyme (100 nM, 50 nM, 25 nM, or 12.5 nM) in assay buffer. Reactions were stopped at regular intervals by the addition of 10 μl Endo-LysC (final concentration 2 nM). FLTs were measured following 15 min incubation with Endo-LysC at room temperature. All measurements were performed in duplicate using a NanoTaurus plate reader.
The dependence of the Set7/9 assay on SAM co-factor was investigated using peptide 13 as the substrate. The assay was performed in a 384-well microplate at room temperature for 2 h in assay buffer (20 μl) using 25 nM Set7/9 and 1 μM substrate. SAM concentrations were varied from 100 μM-1.7 nM. On completion, Endo-LysC (2 nM) was added to each well and FLTs measured following a 20 min incubation period.
(§2) Reactions were performed in a 384-well microplate at room temperature for 2 h and stopped by the addition of Endo-LysC (2 nM).
Alternatively, assays were performed in a 384-well microplate at room temperature with an assay volume of 20 μl per well. To wells containing recombinant Set7/9 enzyme and peptide 12 or 13 in assay buffer (10 μl) was added SAM (10 μl) in assay buffer. Controls containing peptide only were also included. The plate was shaken and then sealed with a coverslip. The final concentration of Set7/9 in the assay varied between 100 nM and 12.5 nM whilst the concentration of peptide and SAM were kept constant at 1 μM and 100 μM respectively. Assays were started at different times and stopped together after 120 min by the addition of Endo-LysC (10 μl in assay buffer; final concentration 2 nM). Following incubation at room temperature for 15 min, the microplate was centrifuged at 500 rpm for 1 min and FLTs measured. All measurements were performed in duplicate.
For inhibitor titrations, compounds (5 μl) were preincubated with Set7/9 and peptide 13 (5 μl) for 10 min at room temperature prior to addition of SAM (10 μl). Controls containing no SAM or no inhibitor were included.

PRMT5 = target: T2, PRMT5 (Homo sapiens, UniProt O14744); experiment: PRMT5 FLT protease protection assay; format: biochemical
T2 construct: purchased BPS BioScience (via AMSBio, UK)
Experimental: The assay was performed at room temperature and samples taken after 0 h, 3.5 h, and 17.5 h time intervals respectively.
10 μl of Endo-ArgC (final concentration 10 nM) was added to each well and the plate incubated at room temperature for 60 mins before FLTs were measured. Peptide only controls were included at the same concentration for comparison.
Conditions were as follows: sinefungin (2 mM-0.1 μM), PRMT5 (50 nM), SAM (10 μM) and peptide 15 (1 μM) in assay buffer (20 μl). Reactions were performed in triplicate in a 384-well microplate at room temperature for 3 h and stopped by the addition of Endo-ArgC (1 nM).
Endo-ArgC (10 μl in assay buffer) was then added to each well and the plate incubated at room temperature for 15 mins. FLTs were then re-measured. All measurements were performed in triplicate and the final concentration of Endo-ArgC in the wells was 10 nM.
For inhibitor titrations, compounds (5 μl) were preincubated with PRMT5/peptide 15 (5 μl) for 30 min at room temperature prior to the addition of SAM (5 μl). Assays were run for 3 h at room temperature and stopped by the addition of 10 μl Endo-ArgC. FLTs were measured following a 1 h incubation at room temperature. Controls containing no PRMT5 or no inhibitor were also included. All measurements were performed in triplicate.

G9a = target: T3, G9a (Homo sapiens, UniProt Q96KQ7); experiment: G9a FLT protease protection assay; format: biochemical; conditions: for G9a concentration sufficient to confer complete protease protection: G9a (Abcam), 2 nM Endo-LysC
T3 construct: purchased Millipore; Abcam; BPS Bioscience (via AMSBio)
T3 sequence (Q96KQ7 1-1210): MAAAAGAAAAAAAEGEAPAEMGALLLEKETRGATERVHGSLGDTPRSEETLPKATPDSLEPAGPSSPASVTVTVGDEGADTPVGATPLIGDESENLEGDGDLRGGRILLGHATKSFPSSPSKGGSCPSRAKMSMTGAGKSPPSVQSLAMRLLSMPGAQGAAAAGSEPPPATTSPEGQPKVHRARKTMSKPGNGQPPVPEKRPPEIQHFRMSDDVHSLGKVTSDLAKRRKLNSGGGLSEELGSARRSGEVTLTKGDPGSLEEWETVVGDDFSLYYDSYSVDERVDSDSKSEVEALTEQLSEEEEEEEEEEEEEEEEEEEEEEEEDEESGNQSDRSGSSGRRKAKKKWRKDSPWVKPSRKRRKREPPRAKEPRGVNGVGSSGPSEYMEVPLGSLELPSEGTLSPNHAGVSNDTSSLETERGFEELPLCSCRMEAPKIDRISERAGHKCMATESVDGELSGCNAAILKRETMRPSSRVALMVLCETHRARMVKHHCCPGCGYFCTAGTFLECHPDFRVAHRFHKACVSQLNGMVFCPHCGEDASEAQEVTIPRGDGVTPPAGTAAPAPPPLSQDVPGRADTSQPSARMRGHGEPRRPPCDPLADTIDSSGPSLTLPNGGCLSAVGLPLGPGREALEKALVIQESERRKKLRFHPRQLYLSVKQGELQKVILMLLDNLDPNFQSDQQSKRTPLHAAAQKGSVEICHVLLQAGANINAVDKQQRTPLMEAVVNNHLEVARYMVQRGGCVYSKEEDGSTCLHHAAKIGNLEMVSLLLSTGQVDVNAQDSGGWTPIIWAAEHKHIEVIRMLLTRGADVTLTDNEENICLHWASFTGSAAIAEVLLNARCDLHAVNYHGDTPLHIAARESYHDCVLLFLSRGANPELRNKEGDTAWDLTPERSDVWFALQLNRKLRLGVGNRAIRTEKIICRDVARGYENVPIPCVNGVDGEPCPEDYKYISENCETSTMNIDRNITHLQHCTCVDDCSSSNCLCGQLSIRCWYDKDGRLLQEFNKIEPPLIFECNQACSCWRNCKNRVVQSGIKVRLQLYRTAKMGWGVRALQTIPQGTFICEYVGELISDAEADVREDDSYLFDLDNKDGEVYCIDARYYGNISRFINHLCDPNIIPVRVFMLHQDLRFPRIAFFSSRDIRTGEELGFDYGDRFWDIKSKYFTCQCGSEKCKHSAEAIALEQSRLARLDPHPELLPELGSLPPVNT
Experimental: Assays were performed at room temperature for 2 h and then FLTs measured using a NanoTaurus plate reader (Edinburgh Instruments Ltd.). Each well was then treated with 2 nM protease (Endo-LysC) (10 μl) and the plate incubated at room temperature for 60 min. The FLTs were then re-measured. Controls were included containing no G9a or no protease.
Peptides 4 and 9 were incubated with SAM (100 μM) and varying concentrations of G9a (Abcam) in 20 μl of assay buffer in a 384-well black microplate (Greiner). The assays were performed at room temperature for 2 h after which FLTs were measured as previously described. 2 nM Endo-LysC (10 μl per well) was then added and FLTs re-measured following 10 min and 60 min incubation with the protease.
The dependence of the G9a assay on SAM was investigated using both peptide 4 and 9 as substrates. Assays were performed in a 384-well microplate in assay buffer (20 μl) using either 25 nM or 10 nM G9a and 1 μM substrate. SAM concentrations were varied from 200 μM-0.4 μM and assays were incubated for 2 h at room temperature. On completion, Endo-LysC (2 nM) was added to each well and FLTs measured following a 10 min incubation period.
as §2
Alternatively, assays were performed in a 384-well microplate at room temperature with an assay volume of 20 μl per well. To wells containing recombinant G9a enzyme in assay buffer (5 μl) was added peptide in assay buffer (10 μl). Reactions were started by the addition of SAM (5 μl). The plate was shaken and then sealed with a coverslip. […] The concentration of peptide was kept constant at 1 μM. Assays were started at different times and stopped together after 2 h by the addition of Endo-LysC (10 μl in assay buffer; final concentration 2 nM). Following incubation at room temperature for 10 min, the microplate was centrifuged at 500 rpm for 1 min and FLTs measured.
For inhibitor titrations, compounds (5 μl) were preincubated with G9a (5 μl) for 30 min at room temperature prior to addition of peptide (5 μl) and SAM (5 μl). Controls containing no SAM or no inhibitor were included.

[3] = target: T4, EZH2/EED/SUZ12/RbAp48/AEBP2 complex (Homo sapiens, UniProt Q15910); conditions: read-out: KM for SAM, literature value; literature (Sneeringer et al. 2010), radiometric assay format; cited from earlier work
[4] = target: T4, EZH2/EED/SUZ12/RbAp48/AEBP2 complex; conditions: read-out: KM (app) for SAM; peptide 20 (1 μM), 100 ng/well EZH2 complex, 5 h
Experimental: The dependence of the EZH2 assay on SAM co-factor was investigated using peptide 20 as the substrate. The assay was performed in a 384-well hi-base microplate at room temperature for 5 h in assay buffer (10 μl) using 100 ng/well EZH2 complex and 1 μM substrate. SAM concentrations were varied from 100 μM-0.05 μM. On completion, Endo-LysC (4 nM) was added to each well and FLTs measured following a 15 min incubation period. The data was fitted to a variable slope dose-response model in Graph Pad Prism to determine the KM (app) for SAM.
For SAM titrations, to wells containing varying concentrations of SAM in assay buffer (2.5 μl) was added EZH2 complex in assay buffer (2.5 μl). Reactions were initiated by the addition of peptide 20 in assay buffer (5 μl). The plate was incubated at room temperature for 5 h and then 10 μl of Endo-LysC in assay buffer was added to each well. Following a further 15 min incubation at room temperature, FLTs were measured. All measurements were performed in triplicate.

PAD4 = target: T5, PAD4 (Homo sapiens, UniProt Q9UM07); experiment: PAD4 FLT protease protection assay; format: biochemical; conditions: 15 μM peptide, 30 nM PAD4, diluted to 1 μM; 10 nM trypsin 10 min
T5 construct: purchased Origene (via Insight Biotechnology)
Experimental: With a suitable HPLC method in hand, PAD4 assays were set up for each of the peptide substrates and aliquots taken at regular time intervals with product formation monitored by RP-HPLC. Each assay was performed in a micro-centrifuge tube containing 15 μM peptide and 30 nM PAD4 (Origene) in assay buffer (300 μl). The assays were performed at room temperature and samples taken at 0 min, 30 min, and 60 min time intervals.
In order to test if citrullination of peptides 1 and 3 by PAD4 had conferred protection against trypsin, the assay mixtures for these peptides (described above) were diluted to 1 μM concentration with assay buffer and 20 μl of each added to three wells of a 384-well black microplate. The FLTs were measured using the NanoTaurus plate reader as described previously. 10 μl of trypsin (final concentration 10 nM) was then added to each well and the plate incubated at room temperature for 10 mins before the FLTs were re-measured. Peptide only controls were included at the same concentration for comparison.
The dependence of the PAD4 assay on peptide substrate concentration was investigated. […] From FIG. 73, a KM of 180 nM was determined for substrate 1. […]
(§1) Where citrullination of the peptide substrate was confirmed, the assay mixtures were diluted 15-fold with assay buffer and transferred to a 384-well microplate (20 μl per well) and FLTs measured. […] FLTs were then re-measured. […]

PAD2 = target: T6, PAD2 (Homo sapiens, UniProt Q9Y2J8); experiment: PAD2 FLT protease protection assay; format: biochemical; conditions: 15 μM peptide, 30 nM PAD2, diluted to 1 μM; 10 nM trypsin 10 min
T6 construct: purchased Modiquest Research
Experimental: Accordingly, peptide 1 (15 μM) was incubated with PAD2 (30 nM) in assay buffer (20 mM Tris pH 8, 200 μM CaCl2, 5 mM DTT, 0.01% CHAPS) (300 μl) and aliquots taken at regular time intervals and analysed by RP-HPLC. The assays were performed at room temperature and samples taken at 0 min, 30 min, and 120 min time intervals
In order to test if citrullination of peptide 1 by PAD2 had conferred protection against trypsin, the assay mixture was diluted to 1 μM concentration with assay buffer and 20 μl added to three wells of a 384-well black microplate. 10 μl of trypsin (final concentration 10 nM) was added to each well and the plate incubated at room temperature for 10 mins before the fluorescence lifetimes (FLTs) were measured using the NanoTaurus plate reader as described in the Experimental section. Peptide only controls were included at the same concentration for comparison.
For HPLC monitoring, assays were performed at room temperature in micro-centrifuge tubes with a total assay volume of 300 μl. Reactions were started by addition of peptide 1 to solutions containing recombinant PAD2 enzyme. […]
as §1

T2 sequence (O14744 whole entry): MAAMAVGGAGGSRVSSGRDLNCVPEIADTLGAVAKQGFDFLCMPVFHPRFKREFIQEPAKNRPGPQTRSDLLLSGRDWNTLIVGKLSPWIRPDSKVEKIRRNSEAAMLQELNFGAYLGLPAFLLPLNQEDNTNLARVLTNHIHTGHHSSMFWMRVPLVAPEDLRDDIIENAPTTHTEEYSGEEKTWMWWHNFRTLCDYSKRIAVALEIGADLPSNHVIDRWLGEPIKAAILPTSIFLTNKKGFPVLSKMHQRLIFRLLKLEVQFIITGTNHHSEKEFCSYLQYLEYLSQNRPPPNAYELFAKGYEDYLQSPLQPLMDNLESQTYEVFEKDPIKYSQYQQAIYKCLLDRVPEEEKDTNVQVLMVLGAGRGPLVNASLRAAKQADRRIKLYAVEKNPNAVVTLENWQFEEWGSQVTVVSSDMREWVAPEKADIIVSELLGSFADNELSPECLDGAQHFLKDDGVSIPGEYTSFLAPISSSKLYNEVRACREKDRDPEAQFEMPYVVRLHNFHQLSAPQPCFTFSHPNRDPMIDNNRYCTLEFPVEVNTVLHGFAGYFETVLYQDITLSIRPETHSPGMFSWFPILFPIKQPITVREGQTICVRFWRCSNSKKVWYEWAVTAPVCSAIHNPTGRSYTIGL
T4 sequence (Q15910 whole entry): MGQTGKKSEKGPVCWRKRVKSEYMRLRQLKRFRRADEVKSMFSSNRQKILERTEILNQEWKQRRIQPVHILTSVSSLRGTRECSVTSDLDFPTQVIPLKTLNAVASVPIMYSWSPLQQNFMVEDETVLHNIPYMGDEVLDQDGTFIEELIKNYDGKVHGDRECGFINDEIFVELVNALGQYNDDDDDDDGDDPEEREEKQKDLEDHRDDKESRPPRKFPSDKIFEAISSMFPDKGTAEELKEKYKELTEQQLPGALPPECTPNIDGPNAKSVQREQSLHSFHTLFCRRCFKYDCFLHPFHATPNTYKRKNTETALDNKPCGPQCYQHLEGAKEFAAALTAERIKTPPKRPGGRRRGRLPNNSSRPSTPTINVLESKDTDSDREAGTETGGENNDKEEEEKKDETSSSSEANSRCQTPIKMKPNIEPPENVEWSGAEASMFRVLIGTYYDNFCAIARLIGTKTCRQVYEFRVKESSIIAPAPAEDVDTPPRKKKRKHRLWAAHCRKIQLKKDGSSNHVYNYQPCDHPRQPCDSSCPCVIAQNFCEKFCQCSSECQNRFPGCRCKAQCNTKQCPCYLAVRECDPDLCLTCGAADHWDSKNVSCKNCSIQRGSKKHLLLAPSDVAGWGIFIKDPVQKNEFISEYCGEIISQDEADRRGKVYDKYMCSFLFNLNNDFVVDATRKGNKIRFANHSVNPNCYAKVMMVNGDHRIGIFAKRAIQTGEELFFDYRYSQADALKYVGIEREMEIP
T4 sequence (O75530 whole entry partner): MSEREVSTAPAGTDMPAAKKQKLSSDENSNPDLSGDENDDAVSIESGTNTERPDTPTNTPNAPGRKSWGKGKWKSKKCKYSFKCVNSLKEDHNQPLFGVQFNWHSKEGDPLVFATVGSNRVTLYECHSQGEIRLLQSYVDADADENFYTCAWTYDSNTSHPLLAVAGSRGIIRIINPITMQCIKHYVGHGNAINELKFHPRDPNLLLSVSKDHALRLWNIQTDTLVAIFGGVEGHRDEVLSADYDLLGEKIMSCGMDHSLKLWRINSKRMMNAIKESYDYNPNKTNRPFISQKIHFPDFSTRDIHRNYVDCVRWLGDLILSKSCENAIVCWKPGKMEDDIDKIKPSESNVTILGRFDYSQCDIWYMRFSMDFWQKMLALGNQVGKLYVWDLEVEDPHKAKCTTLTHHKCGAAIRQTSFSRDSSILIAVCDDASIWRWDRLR
T4 sequence (Q15022 whole entry partner): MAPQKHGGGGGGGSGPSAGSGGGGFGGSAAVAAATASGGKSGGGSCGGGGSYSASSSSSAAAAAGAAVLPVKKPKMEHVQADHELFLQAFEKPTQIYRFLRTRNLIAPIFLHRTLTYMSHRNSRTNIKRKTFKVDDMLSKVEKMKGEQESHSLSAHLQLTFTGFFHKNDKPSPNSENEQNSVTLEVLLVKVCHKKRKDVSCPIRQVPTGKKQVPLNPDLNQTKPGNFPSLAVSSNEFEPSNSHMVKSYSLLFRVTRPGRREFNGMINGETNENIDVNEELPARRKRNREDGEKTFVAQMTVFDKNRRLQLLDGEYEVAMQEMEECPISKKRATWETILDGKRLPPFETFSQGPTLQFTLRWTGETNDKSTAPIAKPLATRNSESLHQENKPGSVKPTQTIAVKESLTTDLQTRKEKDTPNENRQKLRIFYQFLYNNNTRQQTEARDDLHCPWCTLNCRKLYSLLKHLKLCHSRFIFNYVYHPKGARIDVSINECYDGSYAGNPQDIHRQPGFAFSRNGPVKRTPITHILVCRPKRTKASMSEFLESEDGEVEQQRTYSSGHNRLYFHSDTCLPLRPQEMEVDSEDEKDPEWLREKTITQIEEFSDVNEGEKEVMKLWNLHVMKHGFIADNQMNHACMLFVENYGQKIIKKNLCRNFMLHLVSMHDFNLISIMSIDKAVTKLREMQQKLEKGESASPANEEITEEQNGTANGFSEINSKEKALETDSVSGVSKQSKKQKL
T4 sequence (Q09028 whole entry partner): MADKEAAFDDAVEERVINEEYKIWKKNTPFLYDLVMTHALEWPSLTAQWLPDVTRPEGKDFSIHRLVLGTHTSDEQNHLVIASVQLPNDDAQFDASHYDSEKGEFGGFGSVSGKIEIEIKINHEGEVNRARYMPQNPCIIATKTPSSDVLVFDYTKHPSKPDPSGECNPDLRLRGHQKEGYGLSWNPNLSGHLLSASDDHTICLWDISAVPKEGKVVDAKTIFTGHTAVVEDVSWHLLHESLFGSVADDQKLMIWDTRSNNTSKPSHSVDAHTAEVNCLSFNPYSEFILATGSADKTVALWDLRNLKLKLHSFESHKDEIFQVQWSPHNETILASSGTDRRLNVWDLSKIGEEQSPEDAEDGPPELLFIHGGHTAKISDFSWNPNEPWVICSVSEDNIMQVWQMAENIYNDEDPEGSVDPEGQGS
T4 sequence (Q6ZN18 whole entry partner): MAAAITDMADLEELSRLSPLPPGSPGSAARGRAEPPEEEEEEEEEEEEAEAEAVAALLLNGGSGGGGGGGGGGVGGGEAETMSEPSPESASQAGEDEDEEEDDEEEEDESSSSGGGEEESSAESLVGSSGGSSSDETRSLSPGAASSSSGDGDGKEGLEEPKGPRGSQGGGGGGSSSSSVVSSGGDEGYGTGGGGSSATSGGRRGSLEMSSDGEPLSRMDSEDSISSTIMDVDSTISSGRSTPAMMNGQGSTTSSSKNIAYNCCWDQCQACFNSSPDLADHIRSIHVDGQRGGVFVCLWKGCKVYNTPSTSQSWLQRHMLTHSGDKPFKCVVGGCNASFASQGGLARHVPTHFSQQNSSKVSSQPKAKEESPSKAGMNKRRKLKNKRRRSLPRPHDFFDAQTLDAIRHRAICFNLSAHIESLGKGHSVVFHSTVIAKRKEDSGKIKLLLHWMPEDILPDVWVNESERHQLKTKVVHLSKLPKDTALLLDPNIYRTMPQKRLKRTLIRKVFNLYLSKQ
T5 sequence (Q9UM07 whole entry): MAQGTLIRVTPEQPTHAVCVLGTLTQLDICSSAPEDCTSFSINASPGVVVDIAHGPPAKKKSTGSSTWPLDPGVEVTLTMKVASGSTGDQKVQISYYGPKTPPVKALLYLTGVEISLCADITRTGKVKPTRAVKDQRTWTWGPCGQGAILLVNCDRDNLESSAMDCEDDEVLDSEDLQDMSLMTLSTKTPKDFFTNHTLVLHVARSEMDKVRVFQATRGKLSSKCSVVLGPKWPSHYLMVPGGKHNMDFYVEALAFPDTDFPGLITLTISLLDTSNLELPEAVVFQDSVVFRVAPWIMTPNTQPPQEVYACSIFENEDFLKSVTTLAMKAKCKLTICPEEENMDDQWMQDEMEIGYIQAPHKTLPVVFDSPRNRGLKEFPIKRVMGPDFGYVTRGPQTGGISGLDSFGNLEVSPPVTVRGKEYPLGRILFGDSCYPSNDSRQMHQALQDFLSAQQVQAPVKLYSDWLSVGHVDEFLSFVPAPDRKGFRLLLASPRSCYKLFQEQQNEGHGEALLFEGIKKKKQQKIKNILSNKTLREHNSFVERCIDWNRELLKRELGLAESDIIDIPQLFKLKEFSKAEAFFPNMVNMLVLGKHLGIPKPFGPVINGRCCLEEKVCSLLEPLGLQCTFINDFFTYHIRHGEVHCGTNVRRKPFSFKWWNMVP
T6 sequence (Q9Y2J8 whole entry): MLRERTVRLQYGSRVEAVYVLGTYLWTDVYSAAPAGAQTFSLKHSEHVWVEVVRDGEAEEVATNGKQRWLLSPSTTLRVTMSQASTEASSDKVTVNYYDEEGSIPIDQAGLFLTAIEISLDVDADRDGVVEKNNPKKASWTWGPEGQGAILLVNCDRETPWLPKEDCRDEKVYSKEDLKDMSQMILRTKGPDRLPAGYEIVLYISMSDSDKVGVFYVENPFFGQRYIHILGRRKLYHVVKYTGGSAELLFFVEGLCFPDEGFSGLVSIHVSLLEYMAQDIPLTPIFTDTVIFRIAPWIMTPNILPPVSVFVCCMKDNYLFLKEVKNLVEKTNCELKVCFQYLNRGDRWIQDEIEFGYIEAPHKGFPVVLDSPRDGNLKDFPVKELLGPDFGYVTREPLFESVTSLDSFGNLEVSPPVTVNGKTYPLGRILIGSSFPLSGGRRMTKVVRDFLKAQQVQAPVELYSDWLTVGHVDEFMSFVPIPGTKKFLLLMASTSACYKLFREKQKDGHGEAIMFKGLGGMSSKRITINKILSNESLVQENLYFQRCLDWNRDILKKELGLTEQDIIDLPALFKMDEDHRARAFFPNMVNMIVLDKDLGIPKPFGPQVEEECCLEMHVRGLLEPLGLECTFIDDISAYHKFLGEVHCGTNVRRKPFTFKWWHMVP

Nc1ncnc2c1ncn2[C@@H]1O[C@H](CSCC[C@H](N)C(=O)O)[C@@H](O)[C@H]1O [SAH, S-adenosylhomocysteine, reference compound]
IC50 (Set7/9 [1]): 16 µM
IC50 (Set7/9 [2]; peptide 13 (1 μM), Set7/9 50 nM, SAM 500 nM, 2 h): 37 µM

Ac-WSGRGKGGK(9AA)GLGKGGAKRHRK-CONH2 [peptide 15]
increase in FLT after Endo-ArgC for peptide exposed to PRMT5 (PRMT5; 150 nM PRMT5, 100 μM SAM, reaction not complete, 10 nM Endo-ArgC 60 min): 4.7 ns

WARTKQTARK(9AA)STGGKAPRKQLAK-CONH2 [peptide 12]
increase in FLT after Endo-LysC for peptide exposed to Set7/9 (Set7/9 [2]; 15 μM peptide, 172 nM Set7/9, 100 μM SAM, diluted to 1 μM, 2 nM Endo-LysC 15 min): no significant increase in FLT
overall lifetime change between substrate and product / maximum range of the assay (Set7/9 [2]; 2 nM Endo-LysC 15 min): approximately 2.4 ns

9AA-TARK^9STGW-CONH2 [peptide 4]
G9a concentration sufficient to confer complete protease protection (G9a; SAM 100 μM, 2 h): 50 nM

C[S+](CC[C@H](N)C(=O)[O-])C[C@H]1O[C@@H](n2cnc3c(N)ncnc32)[C@H](O)[C@@H]1O (some centres unmarked) [SAM, S-adenosylmethionine, reference compound]
Km [3]: 0.21 to 0.3 µM
Km [4]: 0.71 µM
Km (Set7/9 [2]; peptide 13 as substrate (1 μM), 25 nM Set7/9, 2 h, read-out: Km (app) for SAM): 0.5 µM
Km (G9a; peptides 4 and 9 as substrates (1 μM), 25 nM or 10 nM G9a, 2 h room temperature, read-out: Km (app) for SAM): 3 to 11 µM

K(9AA)ARTK(Me)QTARK^9STGGW-CONH2 [peptide 9]
G9a concentration sufficient to confer complete protease protection (G9a; SAM 100 μM, 2 h): 50 nM
protease protection after G9a treatment (G9a; G9a (Millipore) 500 nM, SAM 100 μM, 2 h, 2 nM Endo-LysC 60 min): complete protease protection

C[C@@H](O)[C@H](NC(=O)[C@H](CO)NC(=O)[C@H](CCC(N)=O)NC(=O)CCc1ccc2nc3ccccc3c(N)c2c1)C(=O)N[C@@H](CCCNC(=N)N)C(=O)NCC(=O)N[C@@H](CO)C(=O)NCC(=O)N[C@@H](Cc1c[nH]cn1)C(=O)N[C@@H](Cc1c[nH]c2ccccc12)C(=O)N[C@@H](CCCCN)C(=O)N[C@@H](CCCCN)C(N)=O [peptide 1] ({Propanoyl(3-(9AA-2-yl))}-QSTRGSGHWKK-NH2)
increase in FLT after trypsin for peptide exposed to PAD4 (PAD4): no increase in FLT
increase in FLT after trypsin for peptide exposed to PAD2 (PAD2): no increase in FLT

WRTKQTARK(9AA)STGGKAPRKQLAK-CONH2 [peptide 13]
overall lifetime change between substrate and product / maximum range of the assay (Set7/9 [2]; 2 nM Endo-LysC 15 min): 4 ns

C[C@@H](O)[C@H](NC(=O)[C@H](CO)NC(=O)[C@H](CCC(N)=O)NC(=O)[C@H](Cc1c[nH]cn1)NC(=O)[C@@H](N)CCCCNC(=O)CCc1ccc2nc3ccccc3c(N)c2c1)C(=O)N[C@@H](CCCNC(=N)N)C(=O)NCC(=O)N[C@@H](CO)C(=O)NCC(=O)N[C@@H](Cc1c[nH]cn1)C(=O)N[C@@H](Cc1c[nH]c2ccccc12)C(=O)N[C@@H](CCCCN)C(=O)N[C@@H](CCCCN)C(N)=O [peptide 3] (H-K(Propanoyl(3-(9AA-2-yl)))HQSTRGSGHWKK-NH2; N-terminus assumed)
increase in FLT after trypsin for peptide exposed to PAD4 (PAD4): no increase in FLT

Nc1ncnc2c1ncn2[C@@H]1O[C@H](C[C@@H](N)CC[C@H](N)C(=O)O)[C@@H](O)[C@H]1O [sinefungin, reference compound]
IC50 (PRMT5; peptide 15 (1 μM), PRMT5 50 nM, SAM 10 μM, 3 h): 13 µM
